# Measured values as given in US12527763B2, “Pyrrole amide compound and use thereof” (SUNSHINE LAKE PHARMA CO., LTD., priority 2019, dated 2026).
# Counter-ions that a name gives are not always drawn. Like-named read-outs stand apart in the source and are kept apart here.
# Tests used:
# [1] = Pharmacokinetic experiment in Beagle dogs; assay type: in vivo; settings: oral, 5.0 mg/kg; for AUC(0-inf) / Cmax / Tmax / half-life: dog, plasma
# Description: Beagle dogs 8-10 kg were randomly divided into two groups, and the test compound was administered orally at a dosage of 5.0 mg/kg; after administration, blood was collected at the time points of 0.0833, 0.25, 0.5, 1.0, 2.0, 4.0, 6.0, 8.0, 24.0, 32.0 and 48.0 hours. A standard curve was established within a suitable range according to the sample concentration, and AB SCIEX API4000 LC-MS/MS was used to determine the concentration of the test compounds in the plasma sample in the MRM mode. According to the drug concentration-time curve, the WinNonLin 6.3 software non-compartmental model method was used to calculate the pharmacokinetic parameters.
# [2] = Pharmacokinetic experiment in cynomolgus monkey; assay type: in vivo, cynomolgus monkeys; settings: oral, 3 mg/kg; for AUC(0-inf) / Cmax / Tmax / half-life: cynomolgus monkey, plasma, female cynomolgus monkeys
# Description: Three female cynomolgus monkeys of 3.0-3.5 kg were taken and orally administered with the test compound at a dosage of 3 mg/kg; after the administration, blood was collected at the time points of 0.083, 0.25, 0.5, 1, 2, 4, 6, 8, 24, 32 and 48 hours. A standard curve was established within an appropriate range based on the sample concentration, and AB SCIEX API 5000 LC-MS/MS was used to determine the concentration of the test compounds in the plasma sample in the MRM mode. According to the drug concentration-time curve, WinNnonlin 6.3 software non-compartmental model method was used to calculate the pharmacokinetic parameters.
# Balb/c 3T3 fibroblast = settings: PMDA Examination Report (Jan. 8, 2019); cited from earlier work
# Balb/c 3T3 cells [3] = settings: mouse, 1 h
# Description: (§1) Preparation of the test compound solution: The test compound was dissolved in dimethyl sulfoxide to obtain a 10 mg/mL solution, and then diluted with dimethyl sulfoxide in multiples of 2.15 times into solutions of different concentrations.
# (§2) Balb/c 3T3 cells were seeded on 96-well culture plates. After 24 hours of culture, the culture medium was discarded, different concentrations of test compounds or balanced salts (HBSS) solution containing positive control substance (chlorpromazine hydrochloride, CPZ) and vehicle control substance were added. Two culture plates of each concentration of the test compound and the positive control substance are a light (+UV) plate and a non-light (-UV) plate, respectively. After incubating for 1 hour, the light plate was placed under UVA with a light intensity of about 1.7 mw/cm2 until the light dose reached 5.0 J/cm2. The non-light plate was placed at room temperature and protected from light for the same time. After the light was over, the culture medium was replaced with fresh one and continuously cultured for 18-22 hours. About 3 hours before the culture was complete, the culture medium was replaced with a medium containing neutral red and serum-free. After incubation, neutral red eluent was added, the absorbance value (OD540) of each well at 540 nm was measured after shaking. The cell 50% inhibitory concentration (IC50), light stimulating factor (PIF) and/or average light effect (MPE) were calculated. The phototoxicity of the compound was determined according to the following criteria: PIF>5 is judged as positive for phototoxicity; 5>PIF>2 is judged as possible phototoxicity; 2>PIF is judged as no phototoxicity.
# Balb/c 3T3 cells [4] = assay: In vitro 3T3 cell neutral red uptake phototoxicity test; settings: for IC50: Mus musculus
# Description: as §1, §2
# [5] = target: mineralocorticoid receptor (MR) (Homo sapiens (Human), UniProt P08235); assay: In vitro activity test: MR LBD-Gal4 DBD dual luciferase reporter gene assay in HEK293 cells with aldosterone at EC80; assay type: cell-based; settings: antagonism of aldosterone at EC80, 18 hours
# Excerpt: Using the characteristics of luciferase binding to the substrate to generate a chemiluminescence reaction, the plasmid containing mineralocorticoid receptor (MR) ligand binding domain (LBD) fused with Gal4 DNA binding domain (DBD) and the firefly luciferase reporter gene plasmid under the control of Gal4 UAS (upstream activation sequence) are transfected into human embryonic kidney cells (HEK293). The changes in mineralocorticoid receptor activity before and after stimulation or the influence of different stimuli on mineralocorticoid receptor activity are judged by the level of firefly luciferase activity. At the same time, in order to reduce the impact of internal change factors on the accuracy of the experiment, the plasmid with Renilla luciferase gene is used as a control plasmid to transfect cells to provide an internal control for transcriptional activity, so that the test results are not interfered by changes in experimental conditions.
# • 1) The HEK293 cells were collected after trypsinization and the cell density was adjusted to 500,000 cells/mL; • 2) FuGENE HD transfection reagent was added to the cell suspension; • 3) The above cell suspension was inoculated into a 96-well cell culture plate of 100 μL/well, and incubated for 24 hours at 37° C., 5% CO2; • 4) A series of concentrations of the test compound solution and EC80 concentration of agonist aldosterone were added to each well and incubated for 18 hours; • 5) Firefly and Renilla luciferase signals were detected by Promega dual luciferase reporter gene test system. Result Processing: • 1) After obtaining the firefly luciferase signal (F) and the Renilla luciferase signal (R), the Renilla luciferase signal was used for correction, that is, the F/R value was used for subsequent calculation of inhibition rate; • 2)% inhibition rate=(Max−X)/(Max−Min)×100%, wherein Max is the F/R value of the positive control well, Min is the F/R value of the negative control well, and X is the test compound well of different concentrations F/R value; • 3) IC50 was calculated by GraphPrism 5.0 mapping software.
# [6] = BALB/c3T3, light or radiation study, read-out: IC50 (+UV)
# [7] = BALB/c3T3, read-out: IC50 (−UV)
# Chain of mineralocorticoid receptor (MR) (P08235 726-964, species assumed): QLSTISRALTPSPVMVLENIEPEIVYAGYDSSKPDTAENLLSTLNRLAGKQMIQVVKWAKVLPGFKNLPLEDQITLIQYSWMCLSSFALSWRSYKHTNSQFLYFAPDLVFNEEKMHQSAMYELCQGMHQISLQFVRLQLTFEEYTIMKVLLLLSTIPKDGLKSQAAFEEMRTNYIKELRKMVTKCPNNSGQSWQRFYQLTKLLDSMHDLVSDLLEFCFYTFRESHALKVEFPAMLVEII
smiles,measurement,setting,value
"Cc1c(C(=O)Nc2ccc(S(C)(=O)=O)cc2)cn(CCO)c1-c1ccccc1C(F)(F)F (atropisomer, axis not shown) [CS-3150, Esaxerenone, reference compound]",AUC(0-inf),[1],45600 ng·h/mL
same,Cmax,[1],1580 ng/mL
same,Tmax,[1],2.33 h
same,half-life,[1],1220 min
same,AUC(0-inf),[2],8990 ng·h/mL
same,Cmax,[2],741 ng/mL
same,Tmax,[2],1.67 h
same,half-life,[2],578 min
same,light stimulus factor PIF,Balb/c 3T3 fibroblast,> 17
same,phototoxicity (in words),Balb/c 3T3 fibroblast,phototoxic
"CN(C)CCCN1c2ccccc2Sc2ccc(Cl)cc21 [CPZ, chlorpromazine hydrochloride, reference compound]",MPE (average light effect),Balb/c 3T3 cells [3],0.368
same,PIF (light stimulating factor),Balb/c 3T3 cells [3],37.381
same,IC50,Balb/c 3T3 cells [4]; [6],0.982 µg/mL
same,IC50,Balb/c 3T3 cells [4]; [7],36.7 µg/mL
"Cc1c(C(=O)Nc2ccc(S(C)(=O)=O)c(F)c2)cn(CCO)c1-c1ccccc1C(F)(F)F [Example 1, N-(3-Fluoro-4-(methylsulfonyl)phenyl)-1-(2-hydroxyethyl)-4-methyl-5-(2-(trifluoromethyl)phenyl)-1H-pyrrole-3-carboxamide]",IC50,[5],6.93 nM
"Cc1c(C(=O)Nc2ccc([S@SP2](C)(=O)=O)c(F)c2)cn(CCO)c1-c1ccccc1C(F)(F)F [Example 2, (S)-1-(2-Hydroxyethyl)-4-methyl-N-(3-fluoro-4-(methylsulfonyl)phenyl)-5-(2-(trifluoromethyl)phenyl)-1H-pyrrole-3-carboxamide]",IC50,[5],3.4 nM
same,AUC(0-inf),[1],145000 ng·h/mL
same,Cmax,[1],4690 ng/mL
same,Tmax,[1],3.33 h
same,half-life,[1],1520 min
same,pharmacokinetic properties compared with the control compound CS-3150,[1],"higher exposure, blood concentration and long half-life"
same,AUC(0-inf),[2],22000 ng·h/mL
same,Cmax,[2],1040 ng/mL
same,Tmax,[2],5.3 h
same,half-life,[2],780 min
same,pharmacokinetic properties compared to the control compound CS-3150,[2]; cynomolgus monkeys,"higher exposure, blood concentration and bioavailability"
same,MPE (average light effect),"Balb/c 3T3 cells [4]; Balb/c 3T3 cells, +UV vs −UV",−0.044
same,PIF (light stimulating factor),"Balb/c 3T3 cells [4]; Balb/c 3T3 cells, +UV vs −UV",1.289
same,IC50,Balb/c 3T3 cells [4]; [6],49.6 µg/mL
same,IC50,Balb/c 3T3 cells [4]; [7],63.8 µg/mL
same,in vitro phototoxicity (in words),Balb/c 3T3 cells [4]; conclusion from Table 6,no in vitro phototoxicity
same,Phototoxicity,Balb/c 3T3 cells [4]; judged from PIF,− (2>PIF is judged as no phototoxicity)
"Cc1c(C(=O)Nc2ccc(S(C)(=O)=O)c(F)c2)cn(CC2(O)CC2)c1-c1ccccc1C(F)(F)F [Example 3, N-(3-Fluoro-4-(methylsulfonyl)phenyl)-1-((1-hydroxycyclopropyl)methyl)-4-methyl-5-(2-(trifluoromethyl)phenyl)-1H-pyrrole-3-carboxamide]",IC50,[5],47.6 nM
"Cc1c(C(=O)Nc2ccc(S(C)(=O)=O)c(F)c2)cn(CC2CCO2)c1-c1ccccc1C(F)(F)F (stereo not shown) [Example 5, N-(3-Fluoro-4-(methylsulfonyl)phenyl)-4-methyl-1-(oxetan-2-ylmethyl)-5-(2-(trifluoromethyl)phenyl)-1H-pyrrole-3-carboxamide]",IC50,[5],21.5 nM
"Cc1c(C(=O)Nc2ccc(S(C)(=O)=O)c(F)c2)cn(C2COC2)c1-c1ccccc1C(F)(F)F [Example 6, N-(3-Fluoro-4-(methylsulfonyl)phenyl)-4-methyl-1-(oxetan-3-yl)-5-(2-(trifluoromethyl)phenyl)-1H-pyrrole-3-carboxamide]",IC50,[5],30.3 nM
"Cc1c(C(=O)Nc2ccc(S(C)(=O)=O)c(F)c2)cn(-c2cccnc2)c1-c1ccccc1C(F)(F)F [Example 7, N-(3-Fluoro-4-(methylsulfonyl)phenyl)-4-methyl-1-(pyridin-3-yl)-5-(2-(trifluoromethyl)phenyl)-1H-pyrrole-3-carboxamide]",IC50,[5],84.5 nM
"Cc1c(C(=O)Nc2cc(F)c3c(c2)sc(=O)n3C)cn(CCO)c1-c1ccccc1C(F)(F)F [Example 8, N-(4-Fluoro-3-methyl-2-oxo-2,3-dihydrobenzo[d]thiazol-6-yl)-1-(2-hydroxyethyl)-4-methyl-5-(2-(trifluoromethyl)phenyl)-1H-pyrrole-3-carboxamide]",IC50,[5],82.2 nM
